Measurements published in PMC4092041 (Journal of cardiovascular pharmacology, 2014).

Experiments:
[1] = Stability of EpFAs at 37°C, neutral pH; format: physicochemical
[2] = test system: P450 metabolites of the ARA cascade / sEH; test: Oxylipin profiling: P450 and sEH metabolites; conditions: for Increase in plasma levels of the infused EpFA vs Ang II infused animals: subcutaneous infusion, corresponding groups
[3] = test system: angiotensin-II dependent hypertension; test: Systolic blood pressure; format: in vivo, mice; conditions: overall mixed effects analysis, all days; TPPU alone 0.2 mg/kg in drinking water; P < 0.05
LOX pathway = test: Oxylipin profiling: LOX metabolites; format: in vivo, mice; conditions: kidney; TPPU 0.2 mg/kg
Body weight gain = format: in vivo; conditions: Ang II infused mice
COX pathway = conditions: kidney; P < 0.05
[4] = test system: angiotensin-II dependent hypertension; conditions: TPPU 0.2 and 0.6 mg/kg; cited from earlier work
sEH = conditions: cited from earlier work
[5] = cited from earlier work

With `CCCCCC1OC1C/C=C\C/C=C\C/C=C\CCCC(=O)O` (stereo not shown) [14, 15-EET, epoxyeicosatrienoic acid] the Stability [1] was “quite stable” and the “Increase in plasma levels of the infused EpFA vs Ang II infused animals” value ([2]; P < 0.05) was “approximately 2 fold”.

With `CCC(=O)N1CCC(NC(=O)Nc2ccc(OC(F)(F)F)cc2)CC1` [TPPU] the “SBP (percent change from baseline) vs Ang II infused controls” value [3] was “statistically lower SBP”, the “Tissue levels of 15(S)-HETrE vs 19, 20-EDP treatment alone” value (LOX pathway) was “increased” and the “Tissue levels of 15-HETE vs 19, 20-EDP treatment alone” value (LOX pathway) was “increased”. The Body weight gain (Body weight gain) was “did not alter body weight gain”, the “Renal PGD2 vs Ang II infusion and 19, 20-EDP alone” value (COX pathway) was “decreased” and the “Blood pressure in Ang II hypertension” value [4] was “lower blood pressure to near baseline levels”. For the same molecule, the “Increase in renal DiHOMEs vs 19, 20-EDP alone or Ang II infusion” value ([2]; TPPU 0.2 mg/kg, P < 0.05) was “approximately 3 fold”, the “Renal levels of 19, 20-EDP vs Ang II alone or 19, 20-EDP treated animals” value ([2]; kidney, TPPU 0.2 mg/kg) was “significantly increased” and the “Summed plasma concentration of DiHDPEs vs 19, 20-EDP treatment alone” value ([2]; plasma, TPPU 0.2 mg/kg) was “decreased significantly”.

For `CCC1OC1C/C=C\C/C=C\C/C=C\C/C=C\C/C=C\CCC(=O)O` (stereo not shown) [19, 20-EDP, epoxydocosapentaenoic acid], the Stability [1] is listed as “quite stable”, the “Tissue levels of PGE2 vs Ang II infusion alone” value (COX pathway) is listed as “significantly decreased by half” and the “Rate of metabolism by sEH compared to most other fatty acid epoxides tested” value (sEH) is listed as “more slowly metabolized”. For the same molecule, the “Tissue levels of 19, 20-EDP relative to tissue levels of 14, 15-EET” value ([2]; animals receiving these EpFAs) was 6 times, the “Renal levels of 14, 15-EET vs Ang II infused animals” value ([2]; kidney, TPPU 0.2 mg/kg) was “significantly decreased” and the “Increase in plasma levels of the infused EpFA vs Ang II infused animals” value ([2]; P < 0.05) was “approximately 2 fold”.

In the case of `CCCCc1nc(Cl)c(CO)n1Cc1ccc(-c2ccccc2-c2nn[nH]n2)cc1` [losartan], the “Adverse effect on monovalent cation balance” value [5] is given as “hyperkalemia” and the “BP in normotensive animals” value [5] is given as “reduced BP”.
